In patent US20070037800A1, “Method of treating neurological disorders using clotrimazole and derivatives thereof” (EnVivo Pharmaceuticals, Inc., priority 2005, published 2007):
“And” between values parts separate entries of the source, which are not always exact repeats. Equal values may be shown once.

What was measured:
[1] = tested on: HD model flies (elav-GAL4 UAS-htt128Q); experiment: Assay of locomotor activity (climbing speed) using the transgenic Drosophila HD model; assay type: in vivo; parameters: Early Speed Effect Size, Summary / Late Speed Effect Size, Summary / Early Speed Effect Size / Late Speed Effect Size / Early Speed Adj Value / Late Speed Adj Value / Early Speed Effect Size, combined campaigns / Late Speed Effect Size, combined campaigns: unit not given here; conditions: for Early Speed Effect Size, combined campaigns / Early Speed Percent TSA, combined campaigns / Late Speed Effect Size, combined campaigns / Late Speed Percent TSA, combined campaigns: drawing 84, drawing 89
Procedure: Female “activator” or “driver” flies were engineered to contain the neuronal specific drivers elav-GAL4 or nirvana-GAL4 in a heat shock-hid Y (phs-hidY or HS-hid+ on Y chomosome) background (Starz-Gaiano et al., 2001). The hid gene is a pro-apoptotic gene, which is expressed in this line by a heat inducible promoter. These flies can be heat shocked in bottles twice over 2 days for 2 hours to kill male larvae and thereby produce massive numbers of elav-GAL4 or nirvana-GAL4 virgin females.
For the mass production of males (either UAS-htt128Q[F27B]/UAS-htt128Q[F27B], the disease transgenes were moved into lines that contain an attached X-chromosome with the same phs-hid element (X^XPhs-hidY) used above. In this scheme the hid gene is present only in female flies and therefore is used to produce large numbers of male flies by heat shock. The massive collection of virgin female elav-GAL4 flies are crossed with the massive collection of males that contain the silent disease-transgene. Their progeny, the F1 generation, are the “assay flies” (e.g., elav-GAL4UAS-htt128Q[F27B]). These assay flies are robotically distributed into drugged assay vials.
The HD Drosophila model express exons 1 to 4 of the human huntingtin gene with 128Q repeats in exon 1. The construct was cloned into the Drosophila transformation vector, pUAST. These were then crossed to GAL4 driver lines that direct expression either to the eye (GMR-GAL4 promoter) or to neurons (elav-GAL4 promoter). […] Progressive degeneration of the photoreceptors was observed after several days of adult life. The properties of the HD128Q flies were consistent with those reported by others for two other strains in which exon-1 containing expanded repeats was expressed in the eye (Jackson et al., 1998; Steffan et al., 2001—US20040142859). To test the effects on motor function of the HD mutation, HD128Q lines were examined in which the transgene was expressed in all neurons. Motor function was assayed by tapping flies in a vial to the bottom and measuring the number of flies that are able to climb to a specified height within a specific length of time. When tapped to the bottom of a vial, wild-type flies rapidly climb to the top, where most of them remain. […] The decline in motor performance was progressive, leading to early death. […] The HD128Q model thus has a functional deficit that in its phenotypic and neuropathological characteristics appears to be related to that seen in the human disease. Moreover, as the deficit is quantifiable and reproducible, it is suitable for automated high-throughput screening.
Standard environmental conditions were followed to establish that different metrics detect differences between disease and control flies. A comparison of compound-treated HD flies and untreated HD flies was also included. The positive control compound tested was the Histone Deacetylase (HDAC) inhibitor Trichostatin-A (TSA).
In an assay run (typically corresponding to one day of an entire multi-day assay) the following process was followed. Each tube was dropped onto a surface, causing the flies to fall to the bottom of the tube and be subjected to impact shock stimulation. Their immediate negative geotaxis response to that event was thereafter captured in a 7.5 second movie. For each tube, this step was repeated five times, giving a total of five repeat videos per tube and run. The raw data for each video were analyzed and trajectories following the movements of individual flies in a tube were generated. The method for analyzing fly trajectories is described in published U.S. Patent Application 2004/0076318A1, which is hereby incorporated by reference in its entirety. The trajectories consisted of a list of x- and y-coordinates mapping out the positions of all the flies in the video, as well as measurements of size, orientation, length and width of the flies, with one list entry for every frame from when the fly started moving in one frame until it stopped in another. […]

[2] = tested on: KA-induced lesion in C57B1/6N mice; conditions: intra-striatal KA, Cosi et al., 2004; cited from earlier work
[3] = food conc 100, days 8 to 10, vs DMSO carrier, single campaigns
[4] = food conc 200, campaign drawing 91, day range not given, late by column position
[5] = conc 100, days 1 to 7, campaigns drawing 83
[6] = conc 100, days 8 to 10, campaigns drawing 83
[7] = conc 300, days 1 to 7, campaigns drawing 80, drawing 83, drawing 85, drawing 88
[8] = conc 300, days 8 to 10, campaigns drawing 80, drawing 83, drawing 85, drawing 88
[9] = food conc 100 (unit not printed; b38: μM), days 1 to 7, single campaigns
[10] = food conc 100, days 8 to 10, single campaigns
[11] = conc 100, days 1 to 7, campaigns drawing 80, drawing 83, drawing 88
[12] = conc 100, days 8 to 10, campaigns drawing 80, drawing 83, drawing 88

Fc1ccc(C(c2ccccc2)(c2ccc(F)cc2)n2ccnc2)cc1
Early Speed Effect Size ([1]; food conc 50 (unit not printed; b38: μM), days 1 to 7, vs DMSO carrier, single campaigns): 0.31 | Early Speed Percent TSA ([1]; food conc 50, days 1 to 7, effect size as percentage of positive control TSA, single campaigns): 16.8% | Late Speed Percent TSA ([1]; food conc 50, days 8 to 10, effect size as percentage of TSA, single campaigns): 12.5% | Late Speed Effect Size ([1]; food conc 50, days 8 to 10, vs DMSO carrier, single campaigns): 0.33 | Early Speed Percent TSA ([1]; food conc 100, days 1 to 7, effect size as percentage of TSA, single campaigns): 56.8% | Early Speed Effect Size ([1]; food conc 100, days 1 to 7, vs DMSO carrier, single campaigns): 1.04 | Late Speed Percent TSA ([1]; food conc 100, days 8 to 10, effect size as percentage of TSA, single campaigns): 49.9% | Late Speed Effect Size [1, 3]: 1.32 | Early Speed Effect Size ([1]; food conc 200 (unit not given), campaign drawing 91, day range not given, early by column position): 1.23 | Early Speed Percent TSA ([1]; food conc 200, campaign drawing 91, day range not given, early by column position): 67.2% | Late Speed Effect Size [1, 4]: 0.8 | Late Speed Percent TSA [1, 4]: 30.2%

FC(F)(F)c1cccc(C(c2ccccc2)(c2ccccc2)n2ccnc2)c1 [1-(3-(TRIFLUOROMETHYL)TRITYL)IMIDAZOLE, 1-(3-(trifluoromethyl)trityl)imidazole]
Early Speed Effect Size, combined campaigns [1, 5]: −0.159 | Early Speed Percent TSA, combined campaigns [1, 5]: −4.3% | Late Speed Effect Size, combined campaigns [1, 6]: 0.344 | Late Speed Percent TSA, combined campaigns [1, 6]: 7.6% | Early Speed Effect Size, combined campaigns [1, 7]: 1.003 | Early Speed Percent TSA, combined campaigns [1, 7]: 45.6% | Late Speed Effect Size, combined campaigns [1, 8]: 1.798 | Late Speed Percent TSA, combined campaigns [1, 8]: 68.2% | Early Speed Adj Value [1, 9]: 10.37 and 10.38 and 10.47 | Late Speed Adj Value [1, 10]: 5.094 and 5.776 and 5.811 | Early Speed Adj Value ([1]; food conc 300 (unit not given), days 1 to 7, single campaigns): 11.11 and 10.33 (2×) and 10.9 and 11.1 and 11.02 | Late Speed Adj Value ([1]; food conc 300, days 8 to 10, single campaigns): 7.096 and 5.024 and 5.921 and 7.137 and 6.976 and 6.601 | Late Speed Effect Size ([1]; food conc 300, days 8 to 10, vs DMSO carrier, single campaigns): 2.88 and 1.62 and 1.96

Cl.FC(F)(F)c1cccc(C(c2ccccc2)(c2ccccc2)n2ccnc2)c1 [1-(3-(trifluoromethyl)trityl)imidazole hydrochloride]
Effect in Drosophila model of HD ([1]; vs carrier controls, metrics early speed (days 1-7) and late speed (days 8-10)): had therapeutic effect

c1ccc(C(c2ccccc2)(c2ccccc2)n2ccnc2)cc1 [1-triphenylmethyl imidazole]
Early Speed Effect Size, combined campaigns [1, 11]: 0.186 | Early Speed Percent TSA, combined campaigns [1, 11]: 9.6% | Late Speed Effect Size, combined campaigns [1, 12]: 0.179 | Late Speed Percent TSA, combined campaigns [1, 12]: 6.9% | Early Speed Adj Value [1, 9]: 10.62 and 9.998 and 10.71 and 11.18 and 10.51 and 10.31 | Early Speed Adj Value ([1]; food conc 100 (unit not printed; b38: μM), days 1 to 7, single campaigns, listed as 1-(triphenylmethyl)imidazole): 10.62 and 10.71 | Late Speed Adj Value [1, 10]: 5.547 and 5.811 and 4.932 and 5.407 and 5.092 and 5.877 | Late Speed Adj Value ([1]; food conc 100, days 8 to 10, single campaigns, listed as 1-(triphenylmethyl)imidazole): 5.81 and 5.41 | Late Speed Effect Size [1, 3]: 0.86 and 0.62

NC(=O)c1ccccc1 [Benzamide]
KA-induced decreases in striatal levels of NAD+ and ATP [2]: partially prevented | KA-induced lesions and astrogliosis [2]: partially prevented

Clc1ccccc1C(c1ccccc1)(c1ccccc1)N1CCOCC1 [Example 1(f), 4-[(2-Chlorophenyl)-diphenylmethyl]-morpholine]
melting point: 205 °C

FC(F)(F)c1cccc(C(c2ccccc2)(c2ccccc2)N2CCOCC2)c1 [Example 1(g), 4-[(3-Trifluoromethylphenyl)-diphenylmethyl]-morpholine]
melting point: 158 to 160 °C
